Key:
Rattus norvegicus [1] = assay: Antiinflammatory activity in Wistar albino rat assessed as inhibition of carrageenan-induced increase in paw edema at 10 mg/kg, po after 90 mins (reference value: 38.7 %); assay type: functional; design: scale not given: the % may be the effect or the level left
[2] = target: T1, Prostaglandin G/H synthase 1 (Rattus norvegicus, UniProt Q63921); assay: Inhibition of rat seminal vesicle COX-1 using arachidonic acid as substrate assessed as reduction of PGG2 to PGH2 incubated for 1 min prior to substrate addition measured after 25 secs by chromogenic assay
T1 sequence (Q63921 whole entry): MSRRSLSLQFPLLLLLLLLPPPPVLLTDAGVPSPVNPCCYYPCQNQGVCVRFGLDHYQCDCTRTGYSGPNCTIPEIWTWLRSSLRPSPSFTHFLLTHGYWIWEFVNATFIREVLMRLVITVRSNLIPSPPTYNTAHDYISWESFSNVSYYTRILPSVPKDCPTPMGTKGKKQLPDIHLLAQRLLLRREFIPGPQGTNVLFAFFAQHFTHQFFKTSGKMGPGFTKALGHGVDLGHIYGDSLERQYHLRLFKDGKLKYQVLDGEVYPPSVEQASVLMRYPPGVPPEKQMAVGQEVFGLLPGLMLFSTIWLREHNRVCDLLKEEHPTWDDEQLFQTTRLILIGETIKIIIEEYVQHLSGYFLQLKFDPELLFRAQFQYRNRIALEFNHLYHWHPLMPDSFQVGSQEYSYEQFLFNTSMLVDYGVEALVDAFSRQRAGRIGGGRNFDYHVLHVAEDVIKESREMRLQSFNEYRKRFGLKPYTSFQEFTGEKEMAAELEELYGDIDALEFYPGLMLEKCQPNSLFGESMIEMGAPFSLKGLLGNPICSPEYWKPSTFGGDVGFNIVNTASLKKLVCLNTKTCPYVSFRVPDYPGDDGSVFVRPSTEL

[3] = Selectivity index, ratio of IC50 for human recombinant COX-2 to IC50 for rat seminal vesicle COX-1; assay type: tissue-based
Rattus norvegicus [4] = assay: Antiinflammatory activity in Wistar albino rat assessed as inhibition of carrageenan-induced increase in paw edema at 10 mg/kg, po after 30 mins (reference value: 30.1 %); assay type: functional; design: scale not given: the % may be the effect or the level left
[5] = target: T2, Prostaglandin G/H synthase 2 (Homo sapiens, UniProt P35354); assay: Inhibition of human recombinant COX-2 expressed in insect cell system using arachidonic acid as substrate assessed as reduction of PGG2 to PGH2 incubated for 1 min prior to substrate addition measured after 25 secs by chromogenic assay
T2 sequence (P35354 whole entry): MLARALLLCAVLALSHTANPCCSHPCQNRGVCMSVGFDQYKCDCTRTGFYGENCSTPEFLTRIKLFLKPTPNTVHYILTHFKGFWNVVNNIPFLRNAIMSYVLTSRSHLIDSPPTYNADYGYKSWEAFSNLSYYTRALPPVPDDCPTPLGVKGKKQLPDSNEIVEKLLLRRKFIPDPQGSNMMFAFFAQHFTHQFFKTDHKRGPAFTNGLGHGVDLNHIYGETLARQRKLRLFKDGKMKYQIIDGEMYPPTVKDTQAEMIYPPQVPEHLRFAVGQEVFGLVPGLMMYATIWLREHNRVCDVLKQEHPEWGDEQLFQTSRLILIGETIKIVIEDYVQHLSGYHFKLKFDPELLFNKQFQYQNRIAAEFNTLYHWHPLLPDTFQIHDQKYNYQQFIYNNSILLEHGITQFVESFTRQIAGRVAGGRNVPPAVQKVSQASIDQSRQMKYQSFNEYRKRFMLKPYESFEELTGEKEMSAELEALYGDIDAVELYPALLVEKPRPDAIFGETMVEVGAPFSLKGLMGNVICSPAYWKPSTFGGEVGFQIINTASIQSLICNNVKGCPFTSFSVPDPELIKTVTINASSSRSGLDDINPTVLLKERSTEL

Structure (SMILES) | Activity (Rattus norvegicus [1]) | IC50 [2] | Ratio IC50 [3] | Activity (Rattus norvegicus [4]) | IC50 [5]
CCOC(=O)c1c(C)oc2ccc(Oc3ccc(C)cc3)cc12 | 25.8% | 49.7 µM | 0.08 | 14.1% | 4.2 µM
CCOC(=O)c1c(C)oc2ccc(Oc3ccccc3)cc12 | 23.8% | 30.8 µM | 0.59 | 15.7% | 18.5 µM
CCOC(=O)c1c(C)oc2ccc(Oc3ccc4ccccc4c3)cc12 | – | 47.5 µM | 0.35 | – | 15.8 µM
CCOC(=O)c1c(C)oc2ccc(Oc3ccc(OC)cc3)cc12 | 12.3% | 38.1 µM | 0.23 | 9.5% | 8.6 µM
CCOC(=O)c1c(C)oc2ccc(Oc3ccccc3C)cc12 | 20.4% | 35.8 µM | 0.17 | 10.1% | 6.1 µM
CCOC(=O)c1c(C)oc2ccc(Oc3ccccn3)cc12 | 18.9% | 27.9 µM | 0.29 | – | 8.1 µM
CCOC(=O)c1c(-c2ccccc2)oc2ccc(Oc3ccccc3)cc12 | 28.4% | 42.5 µM | 0.43 | 15.8% | 18.2 µM
CS(=O)(=O)Nc1ccc([N+](=O)[O-])cc1Oc1ccccc1 [NIMESULIDE] | 23.4% | – | – | 14.1% | –
CCOC(=O)c1c(-c2ccccc2)oc2ccc(Oc3ccccn3)cc12 | 32.6% | – | – | 25.1% | –
CCOC(=O)c1c(-c2ccccc2)oc2ccc(Oc3ccccc3C)cc12 | 24.4% | 29.8 µM | 0.67 | 14.8% | 20.1 µM
CCOC(=O)c1c(-c2ccccc2)oc2ccc(Oc3ccc4ccccc4c3)cc12 | 32.6% | – | – | 20.1% | –
CCOC(=O)c1c(-c2ccccc2)oc2ccc(Oc3ccc(C)cc3)cc12 | 32.6% | 26.2 µM | 0.74 | 22.1% | 19.2 µM

— ChEMBL document CHEMBL3259612, “Design, synthesis, docking and anti-inflammatory evaluation of novel series of benzofuran based prodrugs” (Bioorg Med Chem Lett, 2014)
